# Source: paper PMC9170154, “Identification of an arthropod molecular target for plant-derived natural repellents” (Proceedings of the National Academy of Sciences of the …, 2022)
# Substitutions are numbered along the chain they refer to.
# Columns and labels:
# Assay in all cases: whole-cell patch clamp, HEK […]
# [1] = test system: T1, sTRP1 (scorpion TRP1); format: cell-based, Olivierus martensii; settings: current evoked by 2 mM citronellal after sensitization
# T1 construct: full-length cDNA (791 residues) cloned by RACE PCR, in pIRES2-EGFP vector, transiently expressed in HEK 293T cells
# [2] = target: T2, dTRPγ (Drosophila melanogaster, UniProt Q9VJJ7); format: cell-based; settings: agonist
# T2 construct: gene Trpgamma
# T2 sequence (Q9VJJ7 1-1128): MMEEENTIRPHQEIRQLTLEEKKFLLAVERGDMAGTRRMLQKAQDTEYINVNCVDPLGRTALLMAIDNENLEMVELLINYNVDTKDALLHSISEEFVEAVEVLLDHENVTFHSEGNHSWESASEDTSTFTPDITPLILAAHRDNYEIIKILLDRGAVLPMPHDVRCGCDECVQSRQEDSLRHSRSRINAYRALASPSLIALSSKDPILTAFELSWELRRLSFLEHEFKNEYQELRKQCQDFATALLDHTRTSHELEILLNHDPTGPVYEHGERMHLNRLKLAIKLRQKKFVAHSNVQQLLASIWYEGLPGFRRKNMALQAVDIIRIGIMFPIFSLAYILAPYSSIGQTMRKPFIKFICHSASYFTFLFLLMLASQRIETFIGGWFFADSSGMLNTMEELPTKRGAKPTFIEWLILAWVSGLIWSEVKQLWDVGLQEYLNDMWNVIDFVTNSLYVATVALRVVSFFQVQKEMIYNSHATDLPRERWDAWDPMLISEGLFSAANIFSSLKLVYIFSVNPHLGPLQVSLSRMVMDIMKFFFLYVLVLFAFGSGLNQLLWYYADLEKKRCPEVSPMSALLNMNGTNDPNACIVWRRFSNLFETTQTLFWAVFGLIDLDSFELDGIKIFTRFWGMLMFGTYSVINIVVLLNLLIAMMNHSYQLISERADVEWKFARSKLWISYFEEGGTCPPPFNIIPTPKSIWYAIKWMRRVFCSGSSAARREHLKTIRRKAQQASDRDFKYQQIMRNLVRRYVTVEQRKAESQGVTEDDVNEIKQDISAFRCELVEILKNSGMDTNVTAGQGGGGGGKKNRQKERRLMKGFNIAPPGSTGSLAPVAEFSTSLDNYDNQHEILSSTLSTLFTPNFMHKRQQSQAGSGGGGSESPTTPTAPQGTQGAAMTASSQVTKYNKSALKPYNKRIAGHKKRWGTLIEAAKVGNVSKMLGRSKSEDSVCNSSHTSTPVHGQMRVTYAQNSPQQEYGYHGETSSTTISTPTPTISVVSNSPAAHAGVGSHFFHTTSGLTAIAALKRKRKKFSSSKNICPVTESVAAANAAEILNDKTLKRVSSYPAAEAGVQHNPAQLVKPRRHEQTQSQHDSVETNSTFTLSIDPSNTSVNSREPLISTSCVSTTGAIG
# [3] = test system: T1, sTRP1 (scorpion TRP1); format: cell-based, Olivierus martensii; settings: agonist, after full sensitization
# [4] = target: T2, dTRPγ; format: cell-based
# [5] = target: T2, dTRPγ; format: cell-based; settings: dTRPγ mutant
# [6] = target: T3, dTRPγ (Drosophila melanogaster, UniProt Q9VJJ7, V515A); format: cell-based; settings: dTRPγ mutant
# T3 construct: gene Trpgamma
# T3 sequence (Q9VJJ7 1-1128 V515A): T2 sequence (Q9VJJ7 1-1128) with V515A
smiles,measurement,setting,value
NCCOB(c1ccccc1)c1ccccc1 [2-aminoethoxydiphenyl borate],IC50,"[1]; inhibitor, nH 1.3",48.3 ± 5.58 µM
CC12CCC(CC1=O)C2(C)C (centres unmarked) [camphor],"whole-cell patch clamp, HEK 293T",[2],"We here show that camphor activates both sTRP1 and dTRPγ (SI Appendix, Fig. S11)"
same,EC50,[3]; nH 2.4,3300 ± 200 µM
CC(C)=CCCC(C)CC=O (centres unmarked) [citronellal],EC50,[3]; nH 3.3,560 ± 10 µM
same,EC50,[4],870 ± 50 µM
same,"whole-cell patch clamp, HEK 293T",[5],mutant V513L reduced the response to citronellal and citronellol
CC(C)=CCCC(C)CCO (centres unmarked) [citronellol],EC50,[3]; nH 3.6,300 ± 10 µM
same,EC50,[4],490 ± 20 µM
same,"whole-cell patch clamp, HEK 293T",[5],mutant V513L reduced the response to citronellal and citronellol
same,"whole-cell patch clamp, HEK 293T",[6],the V515A substitution selectively impaired the sensitivity to citronellol and camphor
Cl.Cl.Cl.Cl.Cl.Cl.N.N.N.N.N.N.N.N.N.N.N.N.N.N.[O-2].[O-2].[Ru+3].[Ru+3].[Ru+4] [ruthenium red],IC50,"[1]; channel blocker, nH 1.6",3.12 ± 0.29 µM
